Laboratory results from ChEMBL document CHEMBL1138613, “1,5-Benzodiazepine inhibitors of HCV NS5B polymerase” (Bioorg Med Chem Lett, 2009).

Key:
[1] = Inhibition of HCV NS5B polymerase; set-up: species or system Hepacivirus hominis
[2] = Cytotoxicity against human HuH7 cells after 5 days by ATPlite luminescence assay; type: cell-based, Huh-7
Hepatitis C virus [3] = assay: Antiviral activity against HCV 1b in human HuH7cells by luciferase reporter replicon assay; type: functional, organism-based, Hepacivirus hominis; conditions: genotype 1b, Huh-7
Hepatitis C virus [4] = assay: Inhibition of HCV 1b J4 recombinant NS5B Cdelta 21 polymerase overexpressed in Escherichia coli BL21 (DE3) assessed as [alpha33P]UTP incorporation by scintillation proximity analysis; set-up: species or system Hepatitis C virus subtype 1b
[5] = Selectivity index, ratio of CC50 for human HuH7 cells to EC50 for HCV 1b in human HuH7cells; type: functional, Huh-7
[6] = Apparent permeability from apical to basolateral side of human Caco-2 cells; type: ADME, cell-based

| Compound | IC50 [1] [nM] | CC50 at 120 h [2] [nM] | EC50 (Hepatitis C virus [3]) [nM] | IC50 (Hepatitis C virus [4]) [nM] | Selectivity Index [5] | Papp A→B [6] [×10⁻⁶ cm/s] |
| --- | --- | --- | --- | --- | --- | --- |
| O=C(O)/C(=C/c1ccc(Oc2ccccc2Br)cc1)NC(=O)c1ccccc1 | 100 | – | – | – | – | – |
| O=C(O)/C(=C/c1ccc(Oc2ccccc2)cc1)NC(=O)c1ccccc1 | 17000 | – | – | – | – | – |
| O=C(O)/C(=C/c1ccc(Oc2c(F)cccc2Br)cc1)NC(=O)c1ccccc1 | 30 | – | – | – | – | – |
| CC1(C)CC(=O)C2=C(C1)Nc1c(O)cccc1N(C(=O)c1ccncn1)C2c1ccc(OCc2ccccc2)cc1F (stereo unspecified) | – | > 32000 | 730 | 60 | – | – |
| CC1(C)CC(=O)C2=C(C1)Nc1c(O)cccc1N(C(=O)c1nccs1)C2c1ccc(OCc2ccccc2)cc1F (stereo unspecified) | – | 19000 | 1700 | 111 | – | – |
| CC1(C)CC(=O)C2=C(C1)Nc1c(O)cccc1N(C(=O)c1ccccn1)C2c1ccc(OCc2ccccc2)cc1F (stereo unspecified) | – | 15000 | 360 | 51 | – | – |
| CC(=O)N1c2cccc(O)c2NC2=C(C(=O)CC(C)(C)C2)C1c1ccc(Oc2ccccc2)cc1Cl (stereo unspecified) | – | – | 9900 | 160 | – | – |
| CC(=O)N1c2cccc(O)c2NC2=C(C(=O)CC(C)(C)C2)C1c1ccc(Cl)cc1Cl (stereo unspecified) | – | – | 3000 | 100 | – | – |
| CC(=O)N1c2cccc(O)c2NC2=C(C(=O)CC(C)(C)C2)[C@@H]1c1ccc(Cl)cc1Cl | – | – | 2420 | – | – | – |
| CC(=O)N1c2ccncc2NC2=C(C(=O)CC(C)(C)C2)C1c1ccc(Cl)cc1Cl (stereo unspecified) | – | – | > 32000 | 510 | – | – |
| CC(=O)N1c2ncnc(O)c2NC2=C(C(=O)CC(C)(C)C2)C1c1ccc(Cl)cc1Cl (stereo unspecified) | – | – | > 32000 | > 32000 | – | – |
| CC(=O)N1c2cccc(O)c2NC2=C(C(=O)CC(C)(C)C2)C1C1CCCCC1 (stereo unspecified) | – | – | 740 | 22000 | – | – |
| CC(=O)N1CC2=C(CC(C)(C)CC2=O)Nc2c(O)cccc21 | – | – | > 32000 | > 32000 | – | – |
| Cc1nc(C(=O)N2c3cccc(O)c3NC3=C(C(=O)CC(C)(C)C3)C2c2ccc(OCc3ccccc3)cc2F)cs1 (stereo unspecified) | – | > 32000 | 970 | 143 | – | – |
| CC(=O)N1c2ncccc2NC2=C(C(=O)CC(C)(C)C2)C1c1ccc(Cl)cc1Cl (stereo unspecified) | – | – | > 32000 | 8040 | – | – |
| CC(C)C(=O)N1c2cccc(O)c2NC2=C(C(=O)CC(C)(C)C2)C1c1ccc(OCc2ccccc2)cc1F (stereo unspecified) | – | 14000 | 1300 | 123 | – | – |
| CC(=O)N1c2cccc(O)c2NC2=C(C(=O)CC(C)(C)C2)C1c1ccco1 (stereo unspecified) | – | – | 43000 | 21000 | – | – |
| CC(=O)N1c2cccc(O)c2NC2=C(C(=O)CC(C)(C)C2)C1c1nccn1C (stereo unspecified) | – | – | > 32000 | > 32000 | – | – |
| Cc1cc(OCc2ccccc2)ccc1C1C2=C(CC(C)(C)CC2=O)Nc2c(O)cccc2N1C(=O)C(C)C (stereo unspecified) | – | 15000 | 1600 | 124 | – | – |
| CC(=O)N1c2ccccc2NC2=C(C(=O)CC(C)(C)C2)C1c1ccc(Cl)cc1Cl (stereo unspecified) | – | – | > 32000 | 3100 | – | – |
| CC(=O)N1c2cccc(Br)c2NC2=C(C(=O)CC(C)(C)C2)C1c1ccc(Cl)cc1Cl (stereo unspecified) | – | – | 7800 | 6120 | – | – |
| CC(=O)N1c2cccc(C#N)c2NC2=C(C(=O)CC(C)(C)C2)C1c1ccc(Cl)cc1Cl (stereo unspecified) | – | – | 15400 | 6970 | – | – |
| Cc1cccc(C(=O)N2c3cccc(O)c3NC3=C(C(=O)CC(C)(C)C3)C2c2ccc(OCc3ccccc3)cc2F)n1 (stereo unspecified) | – | 18000 | 500 | 70 | – | – |
| CC1(C)CC(=O)C2=C(C1)Nc1c(O)cccc1N(C(=O)c1cccc(F)n1)C2c1ccc(OCc2ccccc2)cc1F (stereo unspecified) | – | > 32000 | 860 | 77 | – | – |
| CC1(C)CC(=O)C2=C(C1)Nc1c(O)cccc1N(C(=O)c1cscn1)C2c1ccc(OCc2ccccc2)cc1F (stereo unspecified) | – | 29000 | 760 | 39 | – | – |
| Cc1nc(C(=O)N2c3cccc(O)c3NC3=C(C(=O)CC(C)(C)C3)[C@@H]2c2ccc(OCc3ccccc3)cc2F)c(C)o1 | – | 28000 | 270 | 29 | 100 | 10.9 |

| Compound | IC50 [1] [nM] | CC50 at 120 h [2] [nM] | EC50 (Hepatitis C virus [3]) [nM] | IC50 (Hepatitis C virus [4]) [nM] | Selectivity Index [5] | Papp A→B [6] [×10⁻⁶ cm/s] |
| --- | --- | --- | --- | --- | --- | --- |
| Cc1cc(C(=O)N2c3cccc(O)c3NC3=C(C(=O)CC(C)(C)C3)C2c2ccc(OCc3ccccc3)cc2F)no1 (stereo unspecified) | – | 45000 | 1800 | 120 | – | – |
| CC1(C)CC(=O)C2=C(C1)Nc1c(O)cccc1N(C(=O)c1ncn[nH]1)C2c1ccc(OCc2ccccc2)cc1F (stereo unspecified) | – | > 32000 | 2400 | 21 | – | – |
| CC1(C)CC(=O)C2=C(C1)Nc1c(O)cccc1N(C(=O)c1cccc(Cl)n1)C2c1ccc(OCc2ccccc2)cc1F (stereo unspecified) | – | 13000 | 690 | 108 | – | – |
| CC1(C)CC(=O)C2=C(C1)Nc1c(O)cccc1N(C(=O)c1ccco1)C2c1ccc(OCc2ccccc2)cc1F (stereo unspecified) | – | 16000 | 2200 | 75 | – | – |
| Cc1nc(C(=O)N2c3cccc(O)c3NC3=C(C(=O)CC(C)(C)C3)C2c2ccc(OCc3ccccc3)cc2F)co1 (stereo unspecified) | – | 29000 | 1600 | 63 | – | – |
| Cc1cccc(C(=O)N2c3cccc(O)c3NC3=C(C(=O)CC(C)(C)C3)[C@@H]2c2ccc(OCc3ccccc3)cc2F)n1 | – | 21000 | 400 | 89 | 50 | 11.6 |
| Cc1cccc(C(=O)N2c3cccc(O)c3NC3=C(C(=O)CC(C)(C)C3)[C@H]2c2ccc(OCc3ccccc3)cc2F)n1 | – | 18000 | 5700 | > 11000 | – | – |
| Cc1cc(C(=O)N2c3cccc(O)c3NC3=C(C(=O)CC(C)(C)C3)C2c2ccc(OCc3ccccc3)cc2F)nn1C (stereo unspecified) | – | 25000 | 1000 | 50 | – | – |
| Cc1nc(C(=O)N2c3cccc(O)c3NC3=C(C(=O)CC(C)(C)C3)C2c2ccc(OCc3ccccc3)cc2F)c(C)o1 (stereo unspecified) | – | 28000 | 570 | 79 | – | – |
| Cc1nc(C(=O)N2c3cccc(O)c3NC3=C(C(=O)CC(C)(C)C3)[C@H]2c2ccc(OCc3ccccc3)cc2F)c(C)o1 | – | 13000 | 3600 | 27000 | – | – |
| CC1(C)CC(=O)C2=C(C1)Nc1c(O)cccc1N(C(=O)c1cccnc1)C2c1ccc(OCc2ccccc2)cc1F (stereo unspecified) | – | 20000 | 2300 | 109 | – | – |
| CC1(C)CC(=O)C2=C(C1)Nc1c(O)cccc1N(C(=O)c1ccncc1)C2c1ccc(OCc2ccccc2)cc1F (stereo unspecified) | – | 76000 | 3300 | 86 | – | – |
| CC(=O)N1c2cccc(O)c2NC2=C(C(=O)CC(C)(C)C2)[C@H]1c1ccc(Cl)cc1Cl | – | – | 14500 | 14400 | – | – |
| CC(=O)N1c2ncncc2NC2=C(C(=O)CC(C)(C)C2)C1c1ccc(Cl)cc1Cl (stereo unspecified) | – | – | > 32000 | 510 | – | – |
| CC(=O)N1c2cccc(O)c2NC2=C(C(=O)CC(C)(C)C2)C1c1ccc(Oc2c(F)cccc2Br)cc1Cl (stereo unspecified) | – | – | 6300 | 120 | – | – |
| CC(C)C(=O)N1c2cccc(O)c2NC2=C(C(=O)CC(C)(C)C2)C1c1ccc(OCc2ccccc2)cc1Cl (stereo unspecified) | – | 17000 | 1500 | 154 | – | – |
| CC(=O)N1c2cccc(O)c2NC2=C(C(=O)CC(C)(C)C2)C1c1sccc1OCc1ccccc1 (stereo unspecified) | – | – | 11000 | 180 | – | – |
| CC(=O)N1c2cccc(O)c2NC2=C(C(=O)CC(C)(C)C2)C1c1ccc(OCc2ccccc2)cc1Cl (stereo unspecified) | – | 15000 | 1500 | 40 | – | – |
| CC(=O)N1c2ccccc2NC2=C(C(=O)CC(C)(C)C2)[C@@H]1c1ccc(OCc2ccccc2)c(Cl)c1 | – | – | – | 1000 | – | – |
| CC(=O)N1c2cccc(C)c2NC2=C(C(=O)CC(C)(C)C2)C1c1ccc(Cl)cc1Cl (stereo unspecified) | – | – | 14600 | 4780 | – | – |
| CC(=O)N1c2cccc(O)c2NC2=C(C(=O)CC(C)(C)C2)C1c1ccc(Oc2ccccc2Br)cc1Cl (stereo unspecified) | – | – | 7100 | 100 | – | – |
| CC(=O)N1c2ccccc2NC2=C(C(=O)CC(C)(C)C2)C1c1ccc(OCc2ccccc2)cc1Cl (stereo unspecified) | – | – | 2300 | 900 | – | – |
| CC(=O)N1c2cccc(O)c2NC2=C(C(=O)CC(C)(C)C2)C1c1ccccn1 (stereo unspecified) | – | – | > 32000 | > 32000 | – | – |
| CC(=O)N1c2cccc(O)c2NC2=C(C(=O)CC(C)(C)C2)C1c1cn(C)c2ccccc12 (stereo unspecified) | – | – | > 32000 | 13000 | – | – |
| CC(C)C(=O)N1c2cccc(O)c2NC2=C(C(=O)CC(C)(C)C2)C1c1ccc(OCc2ccccc2)cc1Br (stereo unspecified) | – | 12000 | 2400 | 87 | – | – |
